For eight compounds, IC50 results are on record in US5624923A, “Tricyclic diazepine vasopressin antagonists and oxytocin antagonists” (priority 1995, dated 1997).

T1 sequence (P30518 whole entry): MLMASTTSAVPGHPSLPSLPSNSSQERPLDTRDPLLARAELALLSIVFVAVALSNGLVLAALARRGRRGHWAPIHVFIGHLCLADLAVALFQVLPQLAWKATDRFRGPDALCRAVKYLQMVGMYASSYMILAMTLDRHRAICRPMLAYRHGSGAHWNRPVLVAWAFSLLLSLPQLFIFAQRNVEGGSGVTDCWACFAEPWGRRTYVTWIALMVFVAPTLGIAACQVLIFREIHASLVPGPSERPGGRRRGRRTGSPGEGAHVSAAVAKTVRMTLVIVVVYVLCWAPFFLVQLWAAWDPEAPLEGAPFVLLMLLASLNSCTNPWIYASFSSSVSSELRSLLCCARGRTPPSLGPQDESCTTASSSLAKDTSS

The assay concerns the target T1, Human V2 Vasopressin Receptor (Homo sapiens, UniProt P30518).
T1 construct: expressed in transfected cells; host or cells: mouse fibroblast cell line LV-2
Briefly: Binding to Membranes of Mouse Fibroblast Cell Line (LV-2) Transfected with the cDNA Expressing the Human V2 Vasopressin Receptor. The note with it: LV-2 cell membranes, human V2; read-out: V2 IC50 (**).
In general, IC50 refers to the concentration at which inhibition is half-maximal. In the case of `O=C(Nc1ccc(C(=O)N2Cc3ccnn3Cc3ccccc32)cc1)c1ccc(Cl)cc1Cl` [Example 217, N-[4-(4H-Pyrazolo[5,1-c][1,4]benzo-diazepin-5(10H)-ylcarbonyl)phenyl]-2,4-dichlorobenzamide], the IC50 came to 10 nM.
For the compound `O=C(Nc1ccc(C(=O)N2Cc3cccn3Cc3sccc32)cc1)c1ccc(Cl)cc1Cl` [Example 274, N-(4-(5H-pyrrolo[1,2-a]thieno-[3,2-e][1,4]diazepin-4(10H)-ylcarbonyl)phenyl]-2,4-dichloro-benzamide], the IC50 was found to be 31 nM.
Turning to `COc1cc(C(=O)N2Cc3cccn3Cc3ccccc32)ccc1NC(=O)c1ccccc1C` [Example 477, N-[4-(5H-pyrrolo[2,1-c][1,4]benzodiazepin-10(11H)-ylcarbonyl)-2-methoxy-phenyl]-2-methylbenzamide], the IC50 came to 3.2 nM.
Under `COc1cc(C(=O)N2Cc3cccn3Cc3ccccc32)ccc1NC(=O)c1ccc(Cl)cc1Cl` [Example 478, N-[4-(5H-pyrrolo[2,1-c][1,4]benzodiazepin-10(11H)-ylcarbonyl)-2-methoxy-phenyl]-2,4-dichlorobenzamide] stands 1.9 nM; under `O=C(Nc1ccc(C(=O)N2Cc3cccn3Cc3ccccc32)cc1)c1cc([N+](=O)[O-])ccc1Cl` [Example 480, N-[4-(5H-pyrrolo[2,1-c][1,4]benzodiazepin-10(11H)-ylcarbonyl)phenyl]-2-chloro-5-nitrobenzamide], 26 nM.
As to `Cc1cccc(C(=O)Nc2ccc(C(=O)N3Cc4cccn4Cc4ccccc43)c(Cl)c2)c1C` [Example 525, N-[4-(5H-pyrrolo[2,1-c][1,4]benzodiazepin-10(11H)-ylcarbonyl]-3-chlorophenyl]-2,3-dimethylbenzamide], the IC50 worked out at 0.42 nM.
For the compound `O=C(Nc1ccc(C(=O)N2Cc3cccn3Cc3ccccc32)c(Cl)c1)c1ccc(F)cc1Cl` [Example 527, N-[4-(5H-pyrrolo[2,1-c][1,4]benzodiazepin-10(11H)-ylcarbonyl]-3-chlorophenyl]-4-fluoro-2-chlorobenzamide], the IC50 turned out to be 0.67 nM.
Under `O=C(Nc1ccc(C(=O)N2Cc3cccn3Cc3ccccc32)c(Cl)c1)c1ccccc1C(F)(F)F` [Example 528, N-[4-(5H-pyrrolo[2,1-c][1,4]benzodiazepin-10(11H)-ylcarbonyl]-3-chlorophenyl]-2-(trifluoromethyl)benzamide] stands 6 nM.
